{
  "source": "ChEMBL document CHEMBL1137081",
  "about": "“Conformationally constrained analogues of diacylglycerol. 20. The search for an elusive binding site on protein kinase C through relocation of the carbonyl pharmacophore along the sn-1 side chain of 1,2-diacylglycerol lactones” (J Med Chem, 2004)",
  "data": [
    {"molecular_target": "Protein kinase C alpha type (Homo sapiens, UniProt P17252)", "test": "Displacement of [20-3H]-phorbol 12,13-dibutyrate (PDBU) from protein kinase C alpha with phosphatidylserine", "units": {"Ki": "nM"}, "values": [
      {"compound": "CCCCCCCC(=O)OCCCC1(CO)CC(=CCC(C(C)C)C(C)C)C(=O)O1", "note": "(stereo unspecified)", "Ki": 1430},
      {"compound": "CCCCCCCCC(=O)OCCC1(CO)C/C(=C\\CC(C(C)C)C(C)C)C(=O)O1", "note": "(stereo unspecified)", "Ki": 459},
      {"compound": "CCCCCCCCCOC(=O)CC1(CO)C/C(=C\\CC(C(C)C)C(C)C)C(=O)O1", "note": "(stereo unspecified)", "Ki": 62.2},
      {"compound": "CCCCCCCCC(=O)OCCC1(CO)C/C(=C/CC(C(C)C)C(C)C)C(=O)O1", "note": "(stereo unspecified)", "Ki": 208},
      {"compound": "CCCCCCCC(=O)OCCCC1(CO)C/C(=C/CC(C(C)C)C(C)C)C(=O)O1", "note": "(stereo unspecified)", "Ki": 736},
      {"compound": "CCCCCCCCCOC(=O)CC1(CO)C/C(=C/CC(C(C)C)C(C)C)C(=O)O1", "note": "(stereo unspecified)", "Ki": 55.7}
    ]}
  ]
}
